Like-named read-outs stand apart in the source and are kept apart here.
Columns and labels:
HDAC (HeLa cell extract) = assay: Primary assay: deacetylase activity, HeLa cell extract as source of HDAC; type: biochemical, human
Excerpt: (§1) Briefly, this assay relies on the release of radioactive acetate from a radioactively labelled histone fragment by the action of HDAC enzyme. Test compounds, which inhibit HDAC, reduce the yield of radioactive acetate. Signal (e.g., scintillation counts) measured in the presence and absence of a test compound provide an indication of that compound's ability to inhibit HDAC activity. Decreased activity indicates increased inhibition by the test compound.
(§2) The histone fragment was an N-terminal sequence from histone H4, and it was labelled with radioactively labelled acetyl groups using tritiated acetylcoenzyme A (coA) in conjunction with an enzyme which is the histone acetyltransferase domain of the transcriptional coactivator p300. […] The acetylated peptide was then separated from free acetyl coA by size exclusion chromatography on Sephadex G-15 (Sigma G-15-120), using distilled H2O as the mobile phase.
(§3) After purification of the radiolabelled histone fragment, it was incubated with a source of HDAC (e.g., an extract of HeLa cells (a rich source of HDAC), recombinantly produced HDAC1 or HDAC2) and any released acetate was extracted into an organic phase and quantitatively determined using scintillation counting. By including a test compound with the source of HDAC, that compound's ability to inhibit the HDAC was determined.
Two cell volumes of extraction buffer were used, and particulate material was centrifuged out (20800 g, 4° C., 10 min). The supernatant extract having deacetylase activity was aliquotted and frozen for storage.
(§4) A source of HDAC (e.g., 2 μL of crude HeLa extract, 5 μL of HDAC1 or HDAC2; in elution buffer, as above) was incubated with 3 μL of radioactively labelled peptide along with appropriate dilutions of candidate compounds (1.5 μL) in a total volume of 150 μL of buffer (20 mM Tris pH 7.4, 10% glycerol). The reaction was carried out at 37° C. for one hour, after which the reaction was stopped by adding 20 μL of 1 M HCl/0.4 M sodium acetate. […] Radioactivity was measured using a Tri-Carb 21 00TR Liquid Scintillation Analyzer (Packard).
(§5) Percent activity (% activity) for each test compound was calculated as: % activity={(S^C−B)/(S°−B)}×100 wherein S^C denotes signal measured in the presence of enzyme and the compound being tested, S° denotes signal measured in the presence of enzyme but in the absence of the compound being tested, and B denotes the background signal measured in the absence of both enzyme and compound being tested.

[1] = system: NHEK-Ad primary human adult keratinocyte line; assay: Secondary assay: cell proliferation WST-1, NHEK-Ad; type: cell-based; conditions: Homo sapiens, Keratinocyte, 48 h, read-out: Cell Proliferation Inhibition WST-1 (IC50 unless otherwise specified) NHEK-AD
[2] = system: K11 HPV E7 transformed human keratinocyte line; assay: Secondary assay: cell proliferation WST-1, K11; type: cell-based; conditions: Homo sapiens, Keratinocyte, Table 2, 48 h, read-out: Cell Proliferation Inhibition WST-1 (IC50 unless otherwise specified) K11
HeLa cells = assay: Secondary assay: cell proliferation WST-1, HeLa; type: cell-based; conditions: Homo sapiens, read-out: Cell Proliferation Inhibition WST-1 (IC50 unless otherwise specified) HeLa
JURKAT human T-cell line = assay: Secondary assay: cell proliferation WST-1, Jurkat; type: cell-based; conditions: Homo sapiens, Table 2, 48 h, read-out: Cell Proliferation Inhibition WST-1 (IC50 unless otherwise specified) Jurkat
human HDAC1 = target: T1, human HDAC1 (Homo sapiens, UniProt Q13547); assay: Primary assay: deacetylase activity, recombinantly produced HDAC1; type: biochemical; conditions: Table 1; recombinant HDAC1; read-out: HDAC Inhibition (IC50 unless otherwise specified) HDAC1
T1 construct: Full length human HDAC1 was cloned by PCR; Flag (C); implied by Ni-NTA purification) (N); made in house; host or cells: SF9 insect cells (baculovirus)
Excerpt: as §1, §2, §3
Full length human HDAC1 was cloned by PCR using a λgt11 Jurkat cDNA library (Clontech-HL5012b). […] A second PCR was carried out in order to amplify a fragment containing the HDAC1 sequence fused to the Flag tag.
Amplification of recombinant viruses was performed according to the Pharmingen Instruction Manual.
For protein production, 2×10^7 cells were infected with the appropriate recombinant virus for 3 days. Cells were then harvested and spun at 3,000 rpm for 5 minutes. They were then washed twice in PBS and resuspended in 2 pellet volumes of lysis buffer (25 mM HEPES pH 7.9, 0.1 mM EDTA, 400 mM KCl, 10% glycerol, 0.1% NP-40, 1 mM AEBSF). […]
as §4, with “glycerol).” for “glycerol). The reaction was carried out at 37° C. for one hour, after which the reaction was stopped by adding 20 μL of 1 M HCl/0.4 M sodium acetate.”
as §5

human HDAC2 = target: T2, human HDAC2 (Homo sapiens, UniProt Q92769); assay: Primary assay: deacetylase activity, recombinantly produced HDAC2; type: biochemical; conditions: Table 1; recombinant HDAC2; read-out: HDAC Inhibition (IC50 unless otherwise specified) HDAC2
T2 construct: Full length human HDAC2 was subcloned; Flag (carried over from the HDAC2-pFlag-CTC construct; inferred by analogy to HDAC1) (C); implied by Ni-NTA purification) (N); made in house; host or cells: SF9 insect cells (baculovirus)

[3] = Table 1, read-out: HDAC Inhibition (IC50 unless otherwise specified) HeLa
[4] = comparative tables, HDAC inhibition, read-out: HeLa IC50

T1 sequence (Q13547 whole entry): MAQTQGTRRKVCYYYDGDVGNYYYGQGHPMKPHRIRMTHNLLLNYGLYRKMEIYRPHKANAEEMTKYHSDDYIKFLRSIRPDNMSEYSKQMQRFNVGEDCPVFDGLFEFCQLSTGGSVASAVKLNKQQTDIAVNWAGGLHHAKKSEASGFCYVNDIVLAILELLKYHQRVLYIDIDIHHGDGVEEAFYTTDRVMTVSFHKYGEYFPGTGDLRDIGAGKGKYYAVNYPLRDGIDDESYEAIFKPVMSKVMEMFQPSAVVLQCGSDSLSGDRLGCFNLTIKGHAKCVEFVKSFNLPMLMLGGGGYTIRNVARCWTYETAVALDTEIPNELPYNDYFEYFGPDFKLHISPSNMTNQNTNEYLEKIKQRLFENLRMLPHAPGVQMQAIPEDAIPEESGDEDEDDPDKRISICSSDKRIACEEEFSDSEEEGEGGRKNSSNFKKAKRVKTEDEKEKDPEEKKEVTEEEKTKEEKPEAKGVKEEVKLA
T2 sequence (Q92769 whole entry): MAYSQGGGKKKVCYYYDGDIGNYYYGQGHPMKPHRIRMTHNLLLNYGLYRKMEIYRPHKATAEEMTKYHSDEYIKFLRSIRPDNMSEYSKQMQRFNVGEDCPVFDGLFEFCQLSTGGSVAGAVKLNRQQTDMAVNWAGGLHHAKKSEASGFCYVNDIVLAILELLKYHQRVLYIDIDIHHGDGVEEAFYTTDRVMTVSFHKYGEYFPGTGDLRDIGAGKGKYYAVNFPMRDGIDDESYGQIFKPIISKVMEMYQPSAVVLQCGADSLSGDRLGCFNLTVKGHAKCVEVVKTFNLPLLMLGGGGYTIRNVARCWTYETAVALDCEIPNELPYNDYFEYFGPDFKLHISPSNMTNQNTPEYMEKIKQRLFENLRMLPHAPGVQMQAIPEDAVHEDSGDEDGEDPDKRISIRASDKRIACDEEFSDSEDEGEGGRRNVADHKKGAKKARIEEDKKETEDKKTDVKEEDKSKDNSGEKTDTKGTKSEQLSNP

SMILES: O=C(/C=C/C#Cc1cccc(NS(=O)(=O)c2ccccc2)c1)NO [Oxamflatin, (2E)-5-[3-[(phenylsulfonyl)amino]phenyl]-pent-2-en-4-ynohydroxamic acid, reference compound]
- IC50 (HDAC (HeLa cell extract); [3]): 38 nM
- IC50 (HDAC (HeLa cell extract); [4]): 38 nM
- IC50 [1]: 3530 nM
- IC50 [2]: 4560 nM
- IC50 (HeLa cells; 48 h): 1100 nM
- IC50 (JURKAT human T-cell line): 260 nM

SMILES: Cc1ccc(S(=O)(=O)Nc2cccc(/C=C/C(=O)NO)c2)cc1 [PX089342, N-Hydroxy-3-[3(toluene-4-sulfonylamino)-phenyl]-acrylamide]
- IC50 (HDAC (HeLa cell extract); [3]): 125 nM
- IC50 (HDAC (HeLa cell extract); [4]): 125 nM
- IC50 (human HDAC1): 50 nM
- melting point: 147 °C
- IC50 (HeLa cells; Table 2, 48 h): 4100 nM

SMILES: O=C(/C=C/c1cccc(NS(=O)(=O)c2ccccc2)c1)NO [PX089344, 3-(3-Benzenesulfonylamino-phenyl)N-hydroxy-acrylamide]
- IC50 (HDAC (HeLa cell extract); [3]): 89 nM
- IC50 (HDAC (HeLa cell extract); [4]): 89 nM
- melting point: 172 °C
- IC50 (HeLa cells; Table 2, 48 h): 8900 nM
- IC50 (human HDAC2): 172 nM

SMILES: CN(c1ccccc1)S(=O)(=O)c1cccc(/C=C/C(=O)NO)c1 [PX105685]
- IC50 (HeLa cells; 48 h): 7300 nM
- IC50 (human HDAC2): 600 nM

SMILES: COc1ccc(NS(=O)(=O)c2cccc(/C=C/C(=O)NO)c2)cc1 [PX105844]
- IC50 (HDAC (HeLa cell extract); [3]): 15 nM
- IC50 (human HDAC1): 29 nM
- melting point: 186 °C
- IC50 (HeLa cells; Table 2, 48 h): 400 nM

SMILES: Cc1ccc(NS(=O)(=O)c2cccc(/C=C/C(=O)NO)c2)cc1 [PX106508]
- IC50 (HDAC (HeLa cell extract); [3]): 31 nM
- IC50 (HDAC (HeLa cell extract); [4]): 31 nM
- IC50 (human HDAC1): 90 nM
- melting point: 200 °C
- IC50 [2]: 3500 nM
- IC50 (HeLa cells; Table 2, 48 h): 1600 nM
- IC50 (JURKAT human T-cell line): 300 nM

SMILES: O=C(/C=C/c1cccc(S(=O)(=O)NCCc2ccccc2)c1)NO [PX106512]
- IC50 (HDAC (HeLa cell extract); [3]): 22 nM
- IC50 (HDAC (HeLa cell extract); [4]): 22 nM
- IC50 (human HDAC1): 458 nM
- melting point: 114 °C
- IC50 [2]: 2400 nM
- IC50 (HeLa cells; Table 2, 48 h): 1900 nM
- IC50 (JURKAT human T-cell line): 210 nM

SMILES: O=C(/C=C/c1cccc(S(=O)(=O)Nc2cccc3ccccc23)c1)NO [PX117228, N-Hydroxy-3-[3-(naphthalen-1-ylsulfamoyl)-phenyl]-acrylamide]
- IC50 (HDAC (HeLa cell extract); [3]): 7 nM
- IC50 (HDAC (HeLa cell extract); [4]): 7 nM
- IC50 [1]: 1200 nM
- melting point: 180 °C
- IC50 [2]: 1400 nM
- IC50 (HeLa cells; 48 h): 800 nM
- IC50 (JURKAT human T-cell line): 150 nM

SMILES: O=C(/C=C/c1cccc(S(=O)(=O)Nc2ccc3ccccc3c2)c1)NO [PX117445, N-Hydroxy-3-[3-(naphthalen-2-ylsulfamoyl)-phenyl]-acrylamide]
- IC50 (HDAC (HeLa cell extract); [3]): 2 nM
- IC50 ([1]; Table 2, NHEK-AD): 750 nM
- melting point: 164 °C
- IC50 [2]: 1200 nM
- IC50 (HeLa cells; Table 2, 48 h): 1100 nM
- IC50 (JURKAT human T-cell line): 130 nM

— patent US7407988B2, “Carbamic acid compounds comprising a sulfonamide linkage as HDAC inhibitors” (Topotarget UK Limited, priority 2000, dated 2008)
